The values that follow come from article PMC8812735, “Discovery of triterpenoids as potent dual inhibitors of pancreatic lipase and human carboxylesterase 1” (Journal of Enzyme Inhibition and Medicinal Chemistry, 2022).

Read-outs that look alike come from different tables or passages of the source.

One test has as its target T1, Pancreatic lipase (PL) (Sus scrofa, UniProt P00591).
T1 construct: purchased Sigma Aldrich type II, Lot.SLBN9099V
T1 sequence (P00591 1-450): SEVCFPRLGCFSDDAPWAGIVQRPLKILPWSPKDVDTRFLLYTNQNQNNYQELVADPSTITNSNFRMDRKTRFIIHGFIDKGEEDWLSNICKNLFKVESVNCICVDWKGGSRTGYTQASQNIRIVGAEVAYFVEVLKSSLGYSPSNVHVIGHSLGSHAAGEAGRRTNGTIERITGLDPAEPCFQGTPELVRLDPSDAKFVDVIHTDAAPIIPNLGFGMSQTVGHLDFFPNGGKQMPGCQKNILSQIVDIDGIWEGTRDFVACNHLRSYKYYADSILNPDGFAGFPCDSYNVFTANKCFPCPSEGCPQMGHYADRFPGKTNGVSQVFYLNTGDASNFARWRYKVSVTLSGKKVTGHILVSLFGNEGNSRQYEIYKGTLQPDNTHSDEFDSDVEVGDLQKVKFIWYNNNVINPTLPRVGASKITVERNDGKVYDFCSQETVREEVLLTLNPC
Kind of test: Inhibition of PL-mediated 4-MUO hydrolysis. Type of test: biochemical. As to conditions: 4-MUO substrate, mean ± SD (n = 3). How it is done:
In addition, the background fluorescence in the absence of an enzyme source (PL) (add the same amount of citrate-Na2HPO4 buffer) was measured. […] Then start the reaction by adding 2 µL of 4-MUO probe (3 µM, final concentration). The fluorescence signal of 4-MU (hydrolytic metabolite) was detected by multi-mode microplate reader (SpectraMax M4, Molecular Devices, Urstein, Austria) with continuous oscillation for 20 min and recorded and analysed at 60 s intervals. The excitation wavelength and emission wavelength of 4-MU were set at 340 nm and 460 nm, respectively, and the gain value was 500.
(§1) Subsequently, various concentrations of substrates (selected according to Km) and different concentrations of inhibitors were used to determine the corresponding reaction rate, and the second slope graph of the Lineweaver–Burk diagram was used as a function of the inhibitor to calculate the corresponding inhibition constant (Ki) value. All kinetic data were fitted by the following kinetic equations (a–c), for competitive (a), non-competitive (b) and mixed inhibition (c): (a) V=(VmaxS)/[Km(1+I/Ki)+S] (b) V=(VmaxS)/[(Km+S)×(1+I/Ki)] (c) V=(VmaxS)/[(Km+S)×(1+I/αKi)] where V is the hydrolytic velocity of the reaction, Vmax is the maximum velocity. S and I are substrate (4-MUO, NLMe) and inhibitor (compound 39/41) concentrations, respectively. Ki is the inhibition constant of the tested inhibitor against the target PL and hCES1A; Km is the Michaelis constant (the substrate concentration at half of the Vmax).
All measurements were made in triplicate and the data obtained in the experiment were shown as mean ± SD.

A further test addresses T2, hCES1A (Homo sapiens, UniProt P23141).
T2 construct: tissue Bioreclamation IVT lot No. X008067; host or cells: pooled human liver microsomes from 50 donors
T2 sequence (P23141 18-567): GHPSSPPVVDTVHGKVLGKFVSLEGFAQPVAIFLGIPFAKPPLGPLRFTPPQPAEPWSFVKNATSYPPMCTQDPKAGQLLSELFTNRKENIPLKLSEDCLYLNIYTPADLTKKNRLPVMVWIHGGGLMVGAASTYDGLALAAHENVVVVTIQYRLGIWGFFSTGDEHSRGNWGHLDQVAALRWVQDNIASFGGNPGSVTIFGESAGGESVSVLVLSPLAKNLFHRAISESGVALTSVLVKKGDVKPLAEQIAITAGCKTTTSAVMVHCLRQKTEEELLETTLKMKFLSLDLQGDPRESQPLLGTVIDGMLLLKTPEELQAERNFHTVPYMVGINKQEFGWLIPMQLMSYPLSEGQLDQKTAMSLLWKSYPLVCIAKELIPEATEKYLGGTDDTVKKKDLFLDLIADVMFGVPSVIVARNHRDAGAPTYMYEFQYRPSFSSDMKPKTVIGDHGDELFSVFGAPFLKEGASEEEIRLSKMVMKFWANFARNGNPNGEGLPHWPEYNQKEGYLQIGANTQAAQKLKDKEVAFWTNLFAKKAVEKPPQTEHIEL
Kind of test: Inhibition of hCES1A-mediated NLMe hydrolysis in human liver microsomes. Type of test: biochemical. The method, then:
N-Alkylated D-luciferin methyl ester (NLMe), a Specific probe for hCES1A[45], was used for assessing the inhibitory effects for triterpenoids, and BNPP was used as a positive inhibitor of hCES1A. […] Then NLMe (2 µL, 0.15 mM) was added to start the reaction. After shaking the reaction in 37 °C incubator for 10 min, 50 µL of reaction solution was removed and mixed with LDR (50 µL) to terminate the reaction. A multi-mode microplate reader was used to detect the luminescence signal of NL (the hydrolysed metabolite of NLMe). The luminescence product of NL was measured at 580 nm (gain: 140). The final volume ratio of DMSO was less than 1% (V/V).
as §1
All measurements were made in triplicate and the data obtained in the experiment were shown as mean ± SD. The IC50 and Ki values of the compounds with strong inhibitory effect were evaluated by nonlinear regression with graphpad prism 7.0 software (GraphPad Software, Inc., La Jolla, CA).
(Microsomes from liver hold many membrane-bound enzymes, among them those of drug oxidation.)

[1] abbreviates: NLMe substrate, HLM, mean ± SD (n = 3), read-out: IC50 (µM) hCES1A.

For orientation: IC50 means the point on the concentration scale where inhibition reaches its midpoint. Consider `CC1=C(O)C(=O)C=C2C1=CC=C1[C@@]2(C)CC[C@@]2(C)[C@@H]3C[C@](C)(C(=O)O)CC[C@]3(C)CC[C@]12C` [Compound 11, Celastrol], for which the IC50 at Pancreatic lipase (PL) stood at 4.69 ± 0.37 µM; on hCES1A, 14.3 ± 3.03 µM.
Regarding `CC(C)=CCC[C@](C)(O[C@@H]1O[C@H](CO)[C@@H](O)[C@H](O)[C@H]1O)[C@H]1CC[C@]2(C)[C@@H]1[C@H](O)C[C@@H]1[C@@]3(C)CC[C@H](O)C(C)(C)[C@@H]3[C@@H](O)C[C@]12C` [Compound 18], the IC50 against Pancreatic lipase (PL) is more than 100 µM.
As for `CC(=O)OC1CCC2(C)C(CCC3(C)C2CC=C2C4CC(C)(C)CCC4(C(=O)O)CCC23C)C1(C)C` (stereo not shown) [Compound 31], the IC50 turned out to be 3.67 ± 0.72 µM against Pancreatic lipase (PL) and 0.051 ± 0.005 µM at hCES1A.
Regarding `CCCCCC(=O)OC1CCC2(C)C(CCC3(C)C2CC=C2C4CC(C)(C)CCC4(C(=O)O)CCC23C)C1(C)C` (stereo not shown) [Compound 35], the IC50 on Pancreatic lipase (PL) is more than 100 µM; on hCES1A (setting [1]) it was 1.82 ± 0.29 µM.
In turn, `CC(C)=CCC[C@](C)(O)[C@H]1CC[C@]2(C)[C@@H]1[C@H](O)C[C@@H]1[C@@]3(C)CC[C@H](O)C(C)(C)[C@@H]3[C@@H](O[C@@H]3O[C@H](CO)[C@@H](O)[C@H](O)[C@H]3O[C@@H]3O[C@@H](C)[C@H](O)[C@@H](O)[C@H]3O)C[C@]12C` [Compound 23] came in with an IC50 at Pancreatic lipase (PL) of more than 100 µM.
Still for that read-out and setting: then `CC(CC(=O)C[C@@H](C)[C@H]1CC(=O)[C@@]2(C)C3=C(C(=O)C[C@]12C)[C@@]1(C)CC[C@H](O)C(C)(C)[C@@H]1C[C@@H]3O)C(=O)O` (stereo partly shown) [Compound 17, ganoderic acid B], with more than 100 µM; and `CC1(C)[C@@H](O)CC[C@]2(C)[C@H]3C(=O)C=C4[C@@H]5C[C@@](C)(C(=O)O)CC[C@]5(C)CC[C@@]4(C)[C@]3(C)CC[C@@H]12` [Compound 9, glycyrrhetic acid], with 28.3 ± 9.47 µM.
As for `CC1(C)CCC2(C(N)=O)CCC3(C)C(=CCC4C5(C)CCC(O)C(C)(C)C5CCC43C)C2C1` (stereo not shown) [Compound 38], the IC50 was 7.83 ± 1.21 µM against Pancreatic lipase (PL) and 0.48 ± 0.06 µM on hCES1A (setting [1]).
The matching figures for `COC(=O)C12CCC(C)(C)CC1C1=CCC3C4(C)CCC(O)C(C)(C)C4CCC3(C)C1(C)CC2` (stereo not shown) [Compound 36]: 30.6 ± 3.58 µM and 0.856 ± 0.15 µM.
As for `CC1(C)[C@@H](O[C@H]2O[C@H](C(=O)O)[C@@H](O)[C@H](O)[C@H]2O[C@@H]2O[C@H](C(=O)O)[C@@H](O)[C@H](O)[C@H]2O)CC[C@]2(C)[C@H]3C(=O)C=C4[C@@H]5C[C@@](C)(C(=O)O)CC[C@]5(C)CC[C@@]4(C)[C@]3(C)CC[C@@H]12` [Compound 10, glycyrrhizic acid], on Pancreatic lipase (PL), the IC50 was more than 100 µM.
Consider `C[C@H]1[C@H](C)CC[C@]2(C(=O)O)CC[C@]3(C)C(=CC[C@@H]4[C@@]5(C)C[C@@H](O)[C@H](O)C(C)(C)[C@@H]5CC[C@]43C)[C@H]12` [Compound 6, corosolic acid], for which the concentration for half-maximal inhibition (IC50) came out at 12.8 ± 1.44 µM at Pancreatic lipase (PL) and 0.34 ± 0.04 µM against hCES1A.
`CC(C)=CC/C=C(\C)[C@H]1CC[C@]2(C)[C@@H]1[C@H](O)C[C@@H]1[C@@]3(C)CC[C@H](O)C(C)(C)[C@@H]3[C@@H](O[C@@H]3O[C@H](CO)[C@@H](O)[C@H](O)[C@H]3O)C[C@]12C` [Compound 25] showed an IC50 against Pancreatic lipase (PL) of more than 100 µM.
Same read-out and setting: the figure for `CC(C)=CCC=C(C)C1CCC2(C)C1C(O)CC1C3(C)CCC(O)C(C)(C)C3C(OC3OC(CO)C(O)C(O)C3OC3OC(C)C(O)C(O)C3O)CC12C` (stereo not shown) [Compound 19] is 74.5 ± 28.4 µM; for `C=C(C)[C@@H]1CC[C@]2(C)CC[C@]3(C)[C@H](CC[C@@H]4[C@@]5(C)CC[C@H](O)C(C)(C)[C@@H]5CC[C@]43C)[C@@H]12` [Compound 15] it is more than 100 µM.
In turn, `CC(C)=CCC[C@](C)(O[C@@H]1O[C@H](CO)[C@@H](O)[C@H](O)[C@H]1O)[C@H]1CC[C@]2(C)[C@@H]1[C@H](O)C[C@@H]1[C@@]3(C)CC[C@H](O)C(C)(C)[C@@H]3[C@@H](O[C@@H]3O[C@H](CO)[C@@H](O)[C@H](O)[C@H]3O[C@@H]3O[C@@H](C)[C@H](O)[C@@H](O)[C@H]3O)C[C@]12C` [Compound 21] showed an IC50 on Pancreatic lipase (PL) of more than 100 µM.
Same read-out and setting: the figure for `CC(C)=CCC[C@](C)(O[C@@H]1O[C@H](CO)[C@@H](O)[C@H](O)[C@H]1O)[C@H]1CC[C@]2(C)[C@@H]1[C@H](O)C[C@@H]1[C@@]3(C)CC[C@H](O)C(C)(C)[C@@H]3[C@@H](O[C@@H]3O[C@H](CO)[C@@H](O)[C@H](O)[C@H]3O)C[C@]12C` [Compound 22] is more than 100 µM; for `CC(C)=CCCC(C)(OC1OC(CO)C(O)C(O)C1O)C1CCC2(C)C1C(O)CC1C3(C)CCC(O)C(C)(C)C3C(OC3OC(CO)C(O)C(O)C3OC3OC(CO)C(O)C(O)C3O)CC12C` (stereo not shown) [Compound 20] it is 29.7 ± 5.02 µM; for `CC1(C)CC[C@]2(C(=O)O[C@@H]3O[C@H](CO)[C@@H](O)[C@H](O)[C@H]3O)CC[C@]3(C)C(=CC[C@@H]4[C@@]5(C)CC[C@H](O[C@@H]6O[C@H](C(=O)O)[C@@H](O)[C@H](O)[C@H]6O[C@@H]6O[C@H](CO)[C@@H](O)[C@H](O)[C@H]6O)C(C)(C)[C@@H]5CC[C@]43C)[C@@H]2C1` [Compound 26] it is more than 100 µM.
Regarding `CCCCCCCCCCC[C@@H](C[C@@H]1OC(=O)[C@H]1CCCCCC)OC(=O)[C@H](CC(C)C)NC=O` [Compound 28, Orlistat, reference compound], the IC50 on hCES1A (setting [1]) was 0.035 ± 0.003 µM.
The compound `C=C(C)[C@@H]1CC[C@]2(C=O)CC[C@]3(C)[C@H](CC[C@@H]4[C@@]5(C)CC[C@H](O)C(C)(C)[C@@H]5CC[C@]43C)[C@@H]12` [Compound 13] registered an IC50 at Pancreatic lipase (PL) of more than 100 µM.
On the same count and under the same terms, the figure for `CC1(C)CC[C@]2(C(=O)O)[C@H](O)C[C@]3(C)C(=CC[C@@H]4[C@@]5(C)C[C@@H](O)[C@H](O)[C@@](C)(CO)[C@@H]5CC[C@]43C)[C@@H]2C1` [Compound 4, polygalacic acid] is more than 100 µM.
Still for that read-out and setting: then `C=C(C)[C@@H]1CC[C@]2(C(=O)O)CC[C@]3(C)[C@H](CC[C@@H]4[C@@]5(C)CC[C@H](O)C(C)(C)[C@@H]5CC[C@]43C)[C@@H]12` [Compound 14], with more than 100 µM.
Still for that read-out and setting: then `CC(C)=CCC[C@](C)(O[C@@H]1O[C@H](CO)[C@@H](O)[C@H](O)[C@H]1O)[C@H]1CC[C@]2(C)[C@@H]1[C@H](O)C[C@@H]1[C@@]3(C)CC[C@H](O)C(C)(C)[C@@H]3[C@@H](O[C@@H]3O[C@H](CO)[C@@H](O)[C@H](O)[C@H]3O[C@@H]3OC[C@@H](O)[C@H](O)[C@H]3O)C[C@]12C` [Compound 27], with more than 100 µM.
On Pancreatic lipase (PL), `CC(C)=CCC[C@](C)(O)[C@H]1CC[C@]2(C)[C@@H]1[C@H](O)C[C@@H]1[C@@]3(C)CC[C@H](O)C(C)(C)[C@@H]3[C@@H](O[C@@H]3O[C@H](CO)[C@@H](O)[C@H](O)[C@H]3O)C[C@]12C` [Compound 24] came in with an IC50 of more than 100 µM.
Same read-out and setting: then `C=C(CC[C@@H](C(=O)O)[C@H]1[C@H](O)C[C@@]2(C)C3=C(CC[C@]12C)[C@@]1(C)CC[C@H](OC(C)=O)C(C)(C)[C@@H]1CC3)C(C)C` [Compound 16, pachymic acid], with more than 100 µM.
